In patent US20250367113A1, “DRUG DELIVERY SYSTEM COMPRISING AN ANTI-INFLAMMATORY AGENT OR A SALT THEREOF FOR THE APPLICATION TO ESOPHAGEAL MUCOUS MEMBRANES” (EsoCap AG, priority 2022, published 2025):

How the values were obtained:
[1] = system: eotaxin-3 secretion; conditions: cells from eosinophilic esophagitis patients; cited from earlier work
[2] = system: refractory oral graft-versus-host disease; conditions: single case, cited from earlier work
[3] = system: refractory eosinophilic esophagitis; conditions: systemically administered, small case series; cited from earlier work
[4] = system: eosinophilic esophagitis; conditions: person, after 3 months of treatment; cited from earlier work
[5] = UV/Vis spectroscopy of tofacitinib content and spectrum in the polymer film; assay type: physicochemical; conditions: citrate buffer, pH 4.0 with 20% methanol
Experimental: Further, the film was analyzed for the content of tofacitinib. To this end, 6 circular samples with a diameter of 1.9 cm (2.84 cm^2) were cut at random positions of the film and analyzed with a UV/Vis spectroscopy in a citrate buffer, pH 4.0 with 20% methanol. The absorption spectrum is shown in FIG. 10 in comparison to a reference sample (tofacitinib solved in citrate buffer, pH 4.0 with 20% methanol).

[6] = system: atopic dermatitis; conditions: placebo-controlled phase IIa study; cited from earlier work

Structure (SMILES): NC(=O)c1cnc(NCCc2ccc(O)c(Cl)c2)nc1NCc1ccccc1 [AS1517499]
- eotaxin-3 secretion by epithelial cells and fibroblasts [1]: block eotaxin-3 secretion

Structure (SMILES): Cn1cnc([N+](=O)[O-])c1Sc1ncnc2nc[nH]c12 [azathioprine]
- tolerability ([2]; additional topical administration): well tolerated
- clinical benefit of additional topical administration ([2]; topically and systemically administered suspension): seemed to add some clinical benefit
- efficacy in the treatment of refractory eosinophilic esophagitis [3]: efficient

Structure (SMILES): C[C@@H]1CCN(C(=O)CC#N)C[C@@H]1N(C)c1ncnc2[nH]ccc12 [Tofacitinib, tofacitinib]
- appearance of the esophagus [4]: significantly improve the appearance of the esophagus
- number of eosinophils found in esophageal biopsies [4]: least number of eosinophils found in esophageal biopsies
- stability of tofacitinib in the film (absorption spectrum versus reference sample) [5]: can be stably prepared in a film
- results of topical treatment of atopic dermatitis [6]: convincing results

Structure (SMILES): Cc1oncc1C(=O)Nc1ccc(C(F)(F)F)cc1 [leflunomide]
- eotaxin-3 secretion by epithelial cells and fibroblasts [1]: block eotaxin-3 secretion

Structure (SMILES): Sc1ncnc2nc[nH]c12 [6-mercaptopurine]
- efficacy in the treatment of refractory eosinophilic esophagitis [3]: efficient
